Patent US20090221441A1, “THREE-DIMENSIONAL CELLULAR ARRAY CHIP AND PLATFORM FOR TOXICOLOGY ASSAYS” (Rensselaer Polytechnic Institute, priority 2005, published 2009)
Like-named read-outs stand apart in the source and are kept apart here.

Key:
[1] = tested on: MCF7 human breast cancer cells; test: cells
Experimental: (§1) The cytotoxicity of drugs (or drug metabolites) was determined by staining the slide containing the cells with a Live/Dead test kit (Molecular Probes) that produces a green fluorescent response from living cells. At the end of the 3-day culture period post stamping, the three-dimensional cell chip (DataChip) was rinsed three times in PBS for 5 min each. One mL of a dye solution containing 0.5 μM calcein AM was applied to each three-dimensional cell chip using a glass slide with 1 mm thick perimeter gasket acting as a barrier to prevent loss of the dye solution.

[2] = tested on: Hep3B human hepatoma cells; test: cells; conditions: read-out: Calculated IC50, Alginate DataChip (Hep3B)
Experimental: as §1
(§2) Following incubation for 50 minutes at room temperature, excess dye in the collagen-gel drops was removed by incubating the slides in a petri dish containing 16 mL of PBS for 30 min on a gyratory shaker at 60 rpm. The three-dimensional cell chip was dried thoroughly with nitrogen. The three-dimensional cell chip was scanned with the GenePix® Professional 4200A scanner equipped with blue laser and standard blue filter to determine the green fluorescent intensity and was quantified from the scanning image using GenePix Pro 6.0 (Molecular Devices Co.).
(§3) Percent live cells=(FReaction/FMax)×100
(§4) where FReaction is the green fluorescence intensity of the reaction spot and FMax is the green fluorescence intensity of untreated fully viable cells.
(§5) The alginate-containing three-dimensional cell chip (DataChip) was prepared as follows. A poly-L-lysine (PLL)-barium mixture was prepared by mixing equal volume of sterile PLL (0.01 w/v % from Sigma) and barium chloride solution in distilled water (0.1 M from Sigma).
(§6) A suspension of cells in low-viscosity alginate (from Sigma) was prepared by mixing a Hep3B cell suspension in 5% FBS-supplemented DMEM with alginate solution in distilled water so that the final concentration of cells and alginate are 6×10^6 cells/mL and 1% (w/v), respectively.
(§7) Following spotting and drying of 10 nL PLL-barium mixture on the PS-MA-treated slide, 20-nL of the cell suspension (MCF7 or HepB3; cell density of 6×10^6 cells/mL or 120 cells per spot) in alginate was spotted atop each PLL-barium spot.

[3] = tested on: MCF7 cells; test: cells; conditions: Homo sapiens, MCF7, read-out: Calculated IC50, Alginate DataChip (MCF7)
Experimental: as §1, §2, §3, §4, §5, §6, §7

[4] = Cytotoxicity of compounds and their P450-generated metabolites, Hep3B DataChip stamped with MetaChip; conditions: human
Experimental: as §1, §2, §3, §4
(§8) For efficient stamping, MTMOS-coated glass slides were prepared to contain a sol-gel barrier on the periphery of the slides.
(§9) To this end […] of methyltrimethoxysilane (MTMOS) sol was prepared by mixing 2 mL of MTMOS with 1 mL of HCl (10 mM) and sonicated for 10 min. The sol was spotted on the periphery of the MTMOS-coated slide and then the slide was baked in an oven for 30 min at 120° C.
(§10) The MetaChip was stored at −80° C. for 1 day prior to use. Cytotoxicity studies were performed by spotting 20 nL of test compound in distilled water (0-2 mM) onto the MetaChip spots and partially dried.
(§11) This was followed by stamping of the three-dimensional cell chip (DataChip) containing either MCF7 or Hep3B cells onto the MetaChip.
(§12) To this end, a MetaChip consisting of 20×54 alginate spots was prepared; each spot containing a single human P450 isoform (CYP1A2, CYP2D6, or CYP3A4), a mixture of the three isoforms, or no P450 as a test compound only control. Addition of test compounds was carried out by overlay spotting of solutions of these compounds onto the MetaChip, which was then stamped on top of the DataChip.
(§13) Using three DataChips in combination with three MetaChips, IC50 values for 27 compounds and their P450-generated metabolites against human Hep3B cells were determined. […] The three P450 isoforms were used along with an equimolar mixture of the three isoforms and a test compound only control without P450. The test compounds were added to the MetaChip, which was then stamped onto the DataChip and incubated for 6 h. This was followed by removing the DataChip, rinsing with growth medium, incubating in media for 3 days, and then stained for cell viability.

[5] = tested on: human Hep3B cells; test: in vitro
Experimental: as §1, §2, §3, §4, §8, §9, §10, §11, §12, §13

[6] = tested on: MCF7 cells; test: cells; conditions: Homo sapiens
[7] = tested on: MCF7 cells; test: cells; conditions: Homo sapiens; remark: listed apart in the source
[8] = tested on: MCF7 cells; conditions: read-out: IC50, 2D literature values; 2D cultures in 96-well plates, Refs 1-5; cited from earlier work
[9] = P450 activity determination with blue fluorogenic substrates in 384-well plate; assay type: biochemical, human
Experimental: To assess the intrinsic reactivity of P450s in alginate matrices, reactions were performed in wells of a 384-well plate. P450-containing alginate sol was prepared by dispensing 24 μL of P450 baculosomes (1 nmol P450/mL), 36 μL of distilled water, and 60 μL of alginate (2%) in distilled water. Five microliters of this solution were spotted onto 5 μL of the dried PLL-barium spot in a 384-well. Followed by storage of the P450-alginate gel drops at −80° C. for 1 day, 25 μL of blue fluorogenic substrates (BOMCC for CYP3A4 and EOMCC for CYP1A2 and CYP2D6) containing 250 μM NADP^+ and its regeneration system (8 mM glucose-6-phosphate and 1 U/mL glucose-6-phosphate dehydrogenase) in 50 mM potassium phosphate buffer (pH 8) were dispensed onto the thawed P450-alginate gel drop.
As a control, soluble P450 without alginate was also used. The blue fluorescent 7-hydroxycoumarin released by P450-catalyzed oxidation of BOMCC or EOMCC was monitored as a function of time using a BioAssay Reader HTS 7000 Plus (Perkin Elmer, Norwalk, Conn.) at an excitation wavelength of 430 nm and emission wavelength of 497 nm.

[10] = MCF7, read-out: Calculated IC50, Collagen DataChip (MCF7)
[11] = MCF7, read-out: IC50 evaluated on the DataChip
[12] = IC50, CYP1A2, Hep3B DataChip, MetaChip spots with CYP1A2
[13] = IC50, CYP2D6, Hep3B DataChip, MetaChip spots with CYP2D6
[14] = IC50, CYP3A4, Hep3B DataChip, MetaChip spots with CYP3A4
[15] = IC50, Mixture, Hep3B DataChip, equimolar mixture of CYP1A2, CYP2D6, CYP3A4
[16] = IC50, No P450, Hep3B DataChip, test compound only control without P450
[17] = MCF7, read-out: Calculated IC50, 2D 96-well plate
[18] = MCF7, read-out: IC50 from 2D control in the 96-well plate
[19] = MCF7, read-out: Calculated IC50, 3D 96-well plate
[20] = MCF7, read-out: IC50 from 3D control
[21] = Soluble enzyme (control, in solution)

Row | IC50 [1, 10] [µM] | IC50 [1, 11] [µM] | IC50 [2] [µM] | IC50 [3] [µM] | IC50 [6, 17] [µM] | IC50 [6, 18] [µM] | IC50 [7, 19] [µM] | IC50 [7, 20] [µM] | Molecule | IC50 at 6 h [4, 12] [µM] | IC50 at 6 h [4, 13] [µM] | IC50 at 6 h [4, 14] [µM] | IC50 at 6 h [4, 15] [µM] | IC50 at 6 h [4, 16] [µM] | IC50 [8] [µM] | Km ([9]; In Alginate) [µM] | kcat ([9]; In Alginate) [s⁻¹] | Km [9, 21] [µM] | kcat [9, 21] [s⁻¹] | other results
1 | 82.4 ± 10.3 | 51.5 ± 3.3 | 66.1 ± 8.8 | 84.6 ± 18.7 | 68.9 ± 13.5 | 41.7 ± 4.6 | 49 ± 3 | 34.7 ± 1.2 | O=c1[nH]cc(F)c(=O)[nH]1 [5-Fluorouracil, 5-fluorouracil] | 218 ± 44.3 | 132 ± 20.7 | 349 ± 72.3 | 436 ± 77 | 196 ± 27.2 | 4.1 to 30 | – | – | – | – | Activation or deactivation of the toxic response by CYP3A4 [5]: deactivated
2 | 0.43 ± 0.09 | 0.869 ± 0.057 | 0.29 ± 0.09 | 0.19 ± 0.08 | 0.06 ± 0.01 | 0.0647 ± 0.0044 | 0.23 ± 0.02 | 69.2 ± 3 | COc1cccc2c1C(=O)c1c(O)c3c(c(O)c1C2=O)C[C@@](O)(C(=O)CO)C[C@@H]3O[C@H]1C[C@H](N)[C@H](O)[C@H](C)O1 [Doxorubicin, doxorubicin] | 1.01 ± 0.22 | 4.94 ± 1.36 | 19.3 ± 5.45 | 9.71 ± 2.22 | 0.69 ± 0.01 | 0.01 to 55 | – | – | – | – | IC50 at 6 h ([4]; IC50 values, Hep3B DataChip): < 1 µM; Activation or deactivation of the toxic response by CYP2D6 [5]: activated
3 | – | – | – | – | – | – | – | – | CYP1A2: human P450 isoform (baculosomes), soluble or encapsulated in alginate; assayed with EOMCC (protein, UniProt P05177 2-516, looked up) Cytochrome P450 1A2: ALSQSVPFSATELLLASAIFCLVFWVLKGLRPRVPKGLKSPPEPWGWPLLGHVLTLGKNPHLALSRMSQRYGDVLQIRIGSTPVLVLSRLDTIRQALVRQGDDFKGRPDLYTSTLITDGQSLTFSTDSGPVWAARRRLAQNALNTFSIASDPASSSSCYLEEHVSKEAKALISRLQELMAGPGHFDPYNQVVVSVANVIGAMCFGQHFPESSDEMLSLVKNTHEFVETASSGNPLDFFPILRYLPNPALQRFKAFNQRFLWFLQKTVQEHYQDFDKNSVRDITGALFKHSKKGPRASGNLIPQEKIVNLVNDIFGAGFDTVTTAISWSLMYLVTKPEIQRKIQKELDTVIGRERRPRLSDRPQLPYLEAFILETFRHSSFLPFTIPHSTTRDTTLNGFYIPKKCCVFVNQWQVNHDPELWEDPSEFRPERFLTADGTAINKPLSEKMMLFGMGKRRCIGEVLAKWEIFLFLAILLQQLEFSVPPGVKVDLTPIYGLTMKHARCEHVQARLRFSIN | – | – | – | – | – | – | 3.61 ± 0.43 | 0.0085 ± 0.00517 | 5.78 ± 0.8 | 0.0225 ± 0.0013 | –
4 | – | – | – | – | – | – | – | – | CYP2D6: human P450 isoform (baculosomes), soluble or encapsulated in alginate; assayed with EOMCC (protein, UniProt P10635 1-497, looked up) Cytochrome P450 2D6: MGLEALVPLAVIVAIFLLLVDLMHRRQRWAARYPPGPLPLPGLGNLLHVDFQNTPYCFDQLRRRFGDVFSLQLAWTPVVVLNGLAAVREALVTHGEDTADRPPVPITQILGFGPRSQGVFLARYGPAWREQRRFSVSTLRNLGLGKKSLEQWVTEEAACLCAAFANHSGRPFRPNGLLDKAVSNVIASLTCGRRFEYDDPRFLRLLDLAQEGLKEESGFLREVLNAVPVLLHIPALAGKVLRFQKAFLTQLDELLTEHRMTWDPAQPPRDLTEAFLAEMEKAKGNPESSFNDENLRIVVADLFSAGMVTTSTTLAWGLLLMILHPDVQRRVQQEIDDVIGQVRRPEMGDQAHMPYTTAVIHEVQRFGDIVPLGVTHMTSRDIEVQGFRIPKGTTLITNLSSVLKDEAVWEKPFRFHPEHFLDAQGHFVKPEAFLPFSAGRRACLGEPLARMELFLFFTSLLQHFSFSVPTGQPRPSHHGVFAFLVSPSPYELCAVPR | – | – | – | – | – | – | 6.37 ± 1.25 | 0.0012 ± 0.00017 | 12.5 ± 4.64 | 0.002 ± 0.0005 | –
